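These data come from cells grown in 96-well plates and exposed to compound for 48 hours at five concentrations. TGI: total growth inhibition.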
Legend:
Assay in all cases: DTP human tumour cell line panel, 48 h
OVCAR-3 ovarian = test system: OVCAR-3 ovarian
DMS 273 small cell lung = test system: DMS 273 small cell lung
A549 NSCLC = test system: A549 NSCLC
NCI-H226 lung = test system: NCI-H226 lung
NCI-H23 lung = test system: NCI-H23 lung
SN12C renal = test system: SN12C renal
COLO 205 colon = test system: COLO 205 colon
IGROV1 ovarian = test system: IGROV1 ovarian
UO-31 renal = test system: UO-31 renal
786-0 renal = test system: 786-0 renal
HOP-18 NSCLC = test system: HOP-18 NSCLC
HT29 colon = test system: HT29 colon
UACC-257 melanoma = test system: UACC-257 melanoma
SF-539 CNS = test system: SF-539 CNS
A498 renal = test system: A498 renal
SNB-75 CNS = test system: SNB-75 CNS
OVCAR-4 ovarian = test system: OVCAR-4 ovarian
SF-268 CNS = test system: SF-268 CNS
MOLT-4 leukemia = test system: MOLT-4 leukemia
DLD-1 colon = test system: DLD-1 colon
SK-MEL-2 melanoma = test system: SK-MEL-2 melanoma
M14 melanoma = test system: M14 melanoma
LOX IMVI melanoma = test system: LOX IMVI melanoma
HOP-62 NSCLC = test system: HOP-62 NSCLC
SNB-78 CNS = test system: SNB-78 CNS
HCC-2998 colon = test system: HCC-2998 colon
SNB-19 CNS = test system: SNB-19 CNS
CCRF-CEM leukemia = test system: CCRF-CEM leukemia
SF-295 CNS = test system: SF-295 CNS
M19-MEL melanoma = test system: M19-MEL melanoma
EKVX NSCLC = test system: EKVX NSCLC
RXF 393 renal = test system: RXF 393 renal
DMS 114 small cell lung = test system: DMS 114 small cell lung
SW-620 colon = test system: SW-620 colon
RPMI-8226 leukemia = test system: RPMI-8226 leukemia
HCT-116 colon = test system: HCT-116 colon
XF 498 CNS = test system: XF 498 CNS
MALME-3M melanoma = test system: MALME-3M melanoma
SK-OV-3 ovarian = test system: SK-OV-3 ovarian
KM12 colon = test system: KM12 colon
ACHN renal = test system: ACHN renal
SR leukemia = test system: SR leukemia
HCT-15 colon = test system: HCT-15 colon
TK-10 renal = test system: TK-10 renal
KM20L2 colon = test system: KM20L2 colon
NCI-H522 lung = test system: NCI-H522 lung
U251 CNS = test system: U251 CNS
UACC-62 melanoma = test system: UACC-62 melanoma
K-562 leukemia = test system: K-562 leukemia
HOP-92 NSCLC = test system: HOP-92 NSCLC
NCI-H460 lung = test system: NCI-H460 lung
OVCAR-8 ovarian = test system: OVCAR-8 ovarian
LXFL 529 NSCLC = test system: LXFL 529 NSCLC
SK-MEL-28 melanoma = test system: SK-MEL-28 melanoma
HL-60(TB) leukemia = test system: HL-60(TB) leukemia

COc1nc(NC2OCC(O)C(O)C2O)c(NC2OCC(O)C(O)C2O)c(=O)n1C (stereo not given)
TGI (OVCAR-3 ovarian): > 100 µM | TGI (DMS 273 small cell lung): > 100 µM | TGI (A549 NSCLC): > 100 µM | TGI (NCI-H226 lung): > 100 µM | TGI (NCI-H23 lung): > 100 µM | TGI (SN12C renal): > 100 µM | TGI (COLO 205 colon): > 100 µM | TGI (IGROV1 ovarian): > 100 µM | TGI (UO-31 renal): > 100 µM | TGI (786-0 renal): > 100 µM | TGI (HOP-18 NSCLC): > 100 µM | TGI (HT29 colon): > 100 µM | TGI (UACC-257 melanoma): > 100 µM | TGI (SF-539 CNS): > 100 µM | TGI (A498 renal): > 100 µM | TGI (SNB-75 CNS): > 100 µM | TGI (OVCAR-4 ovarian): > 100 µM | TGI (SF-268 CNS): > 100 µM | TGI (MOLT-4 leukemia): > 100 µM | TGI (DLD-1 colon): > 100 µM | TGI (SK-MEL-2 melanoma): > 100 µM | TGI (M14 melanoma): > 100 µM | TGI (LOX IMVI melanoma): > 100 µM | TGI (HOP-62 NSCLC): > 100 µM | TGI (SNB-78 CNS): > 100 µM | TGI (HCC-2998 colon): > 100 µM | TGI (SNB-19 CNS): > 100 µM | TGI (CCRF-CEM leukemia): > 100 µM | TGI (SF-295 CNS): > 100 µM | TGI (M19-MEL melanoma): > 100 µM | TGI (EKVX NSCLC): > 100 µM | TGI (RXF 393 renal): > 100 µM | TGI (DMS 114 small cell lung): > 100 µM | TGI (SW-620 colon): > 100 µM | TGI (RPMI-8226 leukemia): > 100 µM | TGI (HCT-116 colon): > 100 µM | TGI (XF 498 CNS): > 100 µM | TGI (MALME-3M melanoma): > 100 µM | TGI (SK-OV-3 ovarian): > 100 µM | TGI (KM12 colon): > 100 µM | TGI (ACHN renal): > 100 µM | TGI (SR leukemia): > 100 µM | TGI (HCT-15 colon): > 100 µM | TGI (TK-10 renal): > 100 µM | TGI (KM20L2 colon): > 100 µM | TGI (NCI-H522 lung): > 100 µM | TGI (U251 CNS): > 100 µM | TGI (UACC-62 melanoma): > 100 µM | TGI (K-562 leukemia): > 100 µM | TGI (HOP-92 NSCLC): > 100 µM | TGI (NCI-H460 lung): > 100 µM | TGI (OVCAR-8 ovarian): > 100 µM | TGI (LXFL 529 NSCLC): > 100 µM | TGI (SK-MEL-28 melanoma): > 100 µM | TGI (HL-60(TB) leukemia): > 100 µM

C=C1CC[C@@H]2C(C)(C)C(O)CCC2(C)C1COc1ccc2ccc(=O)oc2c1 (stereo not given in full)
TGI (OVCAR-3 ovarian): 32.6 µM | TGI (DMS 273 small cell lung): 27.3 µM | TGI (A549 NSCLC): 32.6 µM | TGI (NCI-H226 lung): 33.3 µM | TGI (NCI-H23 lung): 34.6 µM | TGI (SN12C renal): 30 µM | TGI (COLO 205 colon): 28.1 µM | TGI (IGROV1 ovarian): 33.5 µM | TGI (UO-31 renal): 29.4 µM | TGI (786-0 renal): 42.2 µM | TGI (HOP-18 NSCLC): 35 µM | TGI (HT29 colon): 37.3 µM | TGI (UACC-257 melanoma): 32.6 µM | TGI (SF-539 CNS): 31.3 µM | TGI (A498 renal): 56.8 µM | TGI (SNB-75 CNS): 32.2 µM | TGI (OVCAR-4 ovarian): 29.7 µM | TGI (SF-268 CNS): 36.7 µM | TGI (MOLT-4 leukemia): 39.8 µM | TGI (DLD-1 colon): 34.4 µM | TGI (SK-MEL-2 melanoma): 32 µM | TGI (M14 melanoma): 33.2 µM | TGI (LOX IMVI melanoma): 32 µM | TGI (HOP-62 NSCLC): 33.4 µM | TGI (SNB-78 CNS): 39.2 µM | TGI (HCC-2998 colon): 34.8 µM | TGI (SNB-19 CNS): 37.4 µM | TGI (CCRF-CEM leukemia): 49 µM | TGI (SF-295 CNS): 29.7 µM | TGI (M19-MEL melanoma): 32.5 µM | TGI (EKVX NSCLC): 37.4 µM | TGI (RXF 393 renal): 35.5 µM | TGI (DMS 114 small cell lung): 28.2 µM | TGI (SW-620 colon): 42.4 µM | TGI (RPMI-8226 leukemia): 33.8 µM | TGI (HCT-116 colon): 28.8 µM | TGI (XF 498 CNS): 29.6 µM | TGI (MALME-3M melanoma): 32.1 µM | TGI (SK-OV-3 ovarian): 55.2 µM | TGI (KM12 colon): 29.8 µM | TGI (ACHN renal): 30.5 µM | TGI (SR leukemia): 56.9 µM | TGI (HCT-15 colon): 28.3 µM | TGI (TK-10 renal): 36.9 µM | TGI (KM20L2 colon): 40.5 µM | TGI (NCI-H522 lung): 29.8 µM | TGI (U251 CNS): 34.3 µM | TGI (UACC-62 melanoma): 29.4 µM | TGI (K-562 leukemia): 44.1 µM | TGI (HOP-92 NSCLC): 35.4 µM | TGI (NCI-H460 lung): 23.5 µM | TGI (OVCAR-8 ovarian): 33.5 µM | TGI (LXFL 529 NSCLC): 23.7 µM | TGI (SK-MEL-28 melanoma): 32.2 µM | TGI (HL-60(TB) leukemia): 36.3 µM

CCN(CC)C(=O)c1c(Cl)cc(N(CC)CC)oc1=O
TGI (OVCAR-3 ovarian): > 100 µM | TGI (DMS 273 small cell lung): > 100 µM | TGI (A549 NSCLC): > 100 µM | TGI (NCI-H226 lung): > 100 µM | TGI (NCI-H23 lung): > 100 µM | TGI (SN12C renal): > 100 µM | TGI (COLO 205 colon): > 100 µM | TGI (IGROV1 ovarian): > 100 µM | TGI (UO-31 renal): > 100 µM | TGI (786-0 renal): > 100 µM | TGI (HOP-18 NSCLC): > 100 µM | TGI (HT29 colon): > 100 µM | TGI (UACC-257 melanoma): > 100 µM | TGI (SF-539 CNS): > 100 µM | TGI (A498 renal): > 100 µM | TGI (SNB-75 CNS): > 100 µM | TGI (OVCAR-4 ovarian): > 100 µM | TGI (SF-268 CNS): > 100 µM | TGI (MOLT-4 leukemia): > 100 µM | TGI (DLD-1 colon): > 100 µM | TGI (SK-MEL-2 melanoma): > 100 µM | TGI (M14 melanoma): > 100 µM | TGI (LOX IMVI melanoma): > 100 µM | TGI (HOP-62 NSCLC): > 100 µM | TGI (SNB-78 CNS): > 100 µM | TGI (HCC-2998 colon): > 100 µM | TGI (SNB-19 CNS): > 100 µM | TGI (CCRF-CEM leukemia): > 100 µM | TGI (SF-295 CNS): > 100 µM | TGI (M19-MEL melanoma): > 100 µM | TGI (EKVX NSCLC): > 100 µM | TGI (RXF 393 renal): > 100 µM | TGI (DMS 114 small cell lung): > 100 µM | TGI (SW-620 colon): > 100 µM | TGI (RPMI-8226 leukemia): > 100 µM | TGI (HCT-116 colon): > 100 µM | TGI (XF 498 CNS): > 100 µM | TGI (MALME-3M melanoma): > 100 µM | TGI (SK-OV-3 ovarian): > 100 µM | TGI (KM12 colon): > 100 µM | TGI (ACHN renal): > 100 µM | TGI (SR leukemia): > 100 µM | TGI (HCT-15 colon): > 100 µM | TGI (TK-10 renal): > 100 µM | TGI (KM20L2 colon): > 100 µM | TGI (NCI-H522 lung): > 100 µM | TGI (U251 CNS): > 100 µM | TGI (UACC-62 melanoma): > 100 µM | TGI (K-562 leukemia): > 100 µM | TGI (HOP-92 NSCLC): > 100 µM | TGI (NCI-H460 lung): > 100 µM | TGI (OVCAR-8 ovarian): > 100 µM | TGI (LXFL 529 NSCLC): > 100 µM | TGI (SK-MEL-28 melanoma): > 100 µM | TGI (HL-60(TB) leukemia): > 100 µM

From PubChem BioAssay (NCI)
